From patent US6218393A, “Anthranilic acid derivatives as multi drug resistance modulators” (priority 1997, dated 2001) come the findings set out here.

Data set [1] has as its system AR 1.0 cells. Briefly: Potentiation index with doxorubicin titration. The settings on record: for Potentiation Index at RMA concentration 10 nM: Table C2, RMA 10 nM; for Potentiation Index at RMA concentration 30 nM: Table C2, RMA 30 nM; for Potentiation Index at RMA concentration 100 nM: Table C2, RMA 100 nM; for Potentiation Index at RMA concentration 300 nM: Table C2, RMA 300 nM; for Potentiation Index at RMA concentration 500 nM: Table C2, RMA 500 nM. In kind it is cell-based, mouse. In outline:
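Doxorubicin IC50 in AR 1.0 cells (MDR subline of EMT6 mouse mammary carcinoma) determined by sulphorhodamine B after 4-day culture across 0.263 nM-17.24 μM, with and without a fixed dose of test compound; their ratio gives the PI.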

For data set [2], the system named is AR 1.0 cells. Briefly: Drug accumulation assay: daunorubicin accumulation in AR 1.0 cells. The format is cell-based. The conditions noted are these: Mus musculus, 100% = accumulation with verapamil 100 μM, 1 hr, 37° C. In outline:
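Daunorubicin accumulation was measured in cells plated 48 h beforehand. These were AR 1.0 cells, an MDR-resistant derivative of mouse EMT6 mammary carcinoma, cultured at 37 °C in 5% CO2 in RPMI 1640 plus 10% foetal calf serum and 2 mM glutamine.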

Data set [3] relates to AR 1.0 cells. Briefly: Potentiation of doxorubicin toxicity: proliferation assay (sulphorhodamine B). The format is cell-based, mouse. From the text: (a) Selected compounds of formula (I) were examined for their ability to potentiate the toxicity of doxorubicin in AR 1.0 cells.
Where [4] appears, read: Mus musculus, 96 h, compound alone, four day proliferation, read-out: Compound Toxicity (IC50).
Where [5] appears, read: with fixed doxorubicin 0.34 μm, four days, 5760 min, read-out: Toxicity with Cytotoxic Agent (IC50).

Molecules are shown by their SMILES.

With `COc1cc2c(cc1OC)CN(CCc1ccc(NC(=O)c3ccccc3NC(=O)c3cnc(C)cn3)cc1)CC2` [compound 9527, 5-Methyl-pyrazine-2-carboxylic acid (2-{4-[2-(6,7-dimethoxy-3,4-dihydro-1H-isoquinolin-2-yl)-ethyl]-phenylcarbamoyl}-phenyl)-amide], in the data set on AR 1.0 cells [1], the “Potentiation Index at RMA concentration 10 nM” value is on record as 1.5, the “Potentiation Index at RMA concentration 30 nM” value worked out at 11, the “Potentiation Index at RMA concentration 100 nM” value came out at 50 and the “Potentiation Index at RMA concentration 300 nM” value was determined as 103. Also, the “Potentiation Index at RMA concentration 500 nM” value in the data set with AR 1.0 cells [1] is reported as 120. Also, the IC50 (as a rule, the concentration that gives 50% inhibition) in the data set with AR 1.0 cells [2] was 52 nM. For the same compound, the IC50 in the data set on AR 1.0 cells [3] (setting [4]) came out at 4500 nM. For the same compound, the IC50 in the data set with AR 1.0 cells [3] (setting [5]) was 7 nM.
For the compound `COc1cc2c(cc1OC)CN(CCNC(=O)c1ccccc1NC(=O)c1ccc3ccccc3c1)CC2` [compound 9295, Naphthalene-2-carboxylic acid {2-[2-(6,7-dimethoxy-3,4-dihydro-1H-isoquinolin-2-yl)-ethylcarbamoyl]-phenyl}-amide], the “Potentiation Index at RMA concentration 300 nM” value in the data set on AR 1.0 cells [1] worked out at 16. For the same compound, the values for the IC50 in the data set on AR 1.0 cells [2], in the data set with AR 1.0 cells [3] (setting [4]) and with AR 1.0 cells [3] (setting [5]) were 390 nM, 40000 nM and 600 nM, respectively.
For `COc1cc2c(cc1OC)CN(CCc1ccc(NC(=O)c3ccccc3NC(=O)c3ccc(F)cc3)cc1)CC2` [compound 9501, 2-(4-Fluoro-benzoylamino)-N-{4-[2-(6,7-dimethoxy-3,4-dihydro-1H-isoquinolin-2-yl)-ethyl]-phenyl}-benzamide], in the data set with AR 1.0 cells [1], the “Potentiation Index at RMA concentration 30 nM” value is reported as 1.9, the “Potentiation Index at RMA concentration 100 nM” value amounted to 69 and the “Potentiation Index at RMA concentration 300 nM” value came to 183. The compound further yielded an IC50 with AR 1.0 cells [2] of 120 nM. In the data set on AR 1.0 cells [3] (setting [4]), the IC50 came out at 3000 nM. The IC50 in the data set on AR 1.0 cells [3] (setting [5]) came to 40 nM.
With `COc1cc2c(cc1OC)CN(CCCNC(=O)c1ccccc1NC(=O)c1ccc(C3CCCCC3)cc1)CC2` [compound 9466], in the data set on AR 1.0 cells [1], the “Potentiation Index at RMA concentration 300 nM” value is reported as 30. In addition, the “Potentiation Index at RMA concentration 500 nM” value with AR 1.0 cells [1] is listed as 60. The IC50 in the data set with AR 1.0 cells [2] was determined as 1400 nM; in the data set on AR 1.0 cells [3] (setting [4]) it was 6000 nM; in the data set with AR 1.0 cells [3] (setting [5]), 50 nM.
For `COc1cc2c(cc1OC)CN(CCc1ccc(NC(=O)c3ccccc3NC(=O)c3ccc(C(C)C)cc3)cc1)CC2` [compound 9447, 2-(4-Isopropyl-benzoylamino)-N-{4-[2-(6,7-dimethoxy-3,4-dihydro-1H-isoquinolin-2-yl)-ethyl]-phenyl}-benzamide], in that order: 40, 340, 700 nM, 6800 nM and 65 nM.
For `COc1cc2c(cc1OC)CN(CCc1ccc(NC(=O)c3ccccc3NC(=O)c3ccccc3Cl)cc1)CC2` [compound 9494], in that order: 38, 148, 400 nM, 9000 nM and 50 nM.
Consider `COc1cc2c(cc1OC)CN(CCc1ccc(NC(=O)c3ccccc3NC(=O)c3ccc4ccccc4c3)cc1)CC2` [compound 9476, Naphthaiene-2-carboxylic acid (2-{4-[2-(6,7-dimethoxy-3,4-dihydro-1H-isoquinolin-2-yl)-ethyl]-phenylcarbamoyl}-phenyl)-amide], for which, in the data set with AR 1.0 cells [1], the “Potentiation Index at RMA concentration 300 nM” value is on record as 83 and the “Potentiation Index at RMA concentration 500 nM” value is reported as 136. The same compound gave an IC50 in the data set on AR 1.0 cells [2] of 350 nM. Moreover, in the data set with AR 1.0 cells [3] (setting [4]), the IC50 was determined as 2000 nM.
With `COc1cc2c(cc1OC)CN(CCNC(=O)c1ccccc1NC(=O)c1ccc(OC3CCCCC3)cc1)CC2` [compound 9459, 2-(4-Cyclohexyloxy-benzoylamino)-N-[2-(6,7-dimethoxy-3,4-dihydro-1H-isoquinolin-2-yl)-ethyl]-benzamide], in the data set on AR 1.0 cells [1], the “Potentiation Index at RMA concentration 300 nM” value was 45. The “Potentiation Index at RMA concentration 500 nM” value in the data set on AR 1.0 cells [1] stood at 112. The half-maximal inhibitory concentration (IC50) was 650 nM in the data set on AR 1.0 cells [2], 8500 nM in the data set on AR 1.0 cells [3] (setting [4]) and 90 nM in the data set with AR 1.0 cells [3] (setting [5]).
On the same counts, the results for `COc1cc2c(cc1OC)CN(CCc1ccc(NC(=O)c3ccccc3NC(=O)c3ccncc3)cc1)CC2` [compound 9483, N-(2-{4-[2-(6,7-Dimethoxy-3,4-dihydro-1H-isoquinolin-2-yl)-ethyl]-phenylcarbamoyl}-phenyl}-isonicotinamide] are 14, 24, 1700 nM, 8500 nM and 350 nM.
For the compound `COc1cc2c(cc1OC)CN(CCc1ccc(NC(=O)c3cc(F)ccc3NC(=O)c3cnc4ccccc4n3)cc1)CC2` [compound 9568, Quinoxaline-2-carboxylic acid. (2-{4-[2-(6,7-dimethoxy-3,4-dihydro-1H-isoquinolin-2-yl)-ethyl]-phenylcarbamoyl}-4-fluoro-phenyl)-amide], in the data set with AR 1.0 cells [1], the “Potentiation Index at RMA concentration 10 nM” value amounted to 23, the “Potentiation Index at RMA concentration 30 nM” value worked out at 60 and the “Potentiation Index at RMA concentration 100 nM” value was found to be 88. This compound also yielded an IC50 with AR 1.0 cells [2] of 17 nM. In the data set with AR 1.0 cells [3] (setting [4]), the IC50 worked out at 2800 nM. In addition, the IC50 with AR 1.0 cells [3] (setting [5]) was 3.4 nM.
`COc1cc2c(cc1OC)CN(CCc1ccc(NC(=O)c3ccccc3NC(=O)c3cnccn3)cc1)CC2` [compound 9493, Pyrazine-2-carboxylic acid (2-{4-[2-(6,7-dimethoxy-3,4-dihydro-1H-isoquinolin-2-yl)-ethyl]-phenylcarbamoyl}-phenyl)-amide]: in the data set with AR 1.0 cells [1], the “Potentiation Index at RMA concentration 100 nM” value is reported as 7.6, the “Potentiation Index at RMA concentration 300 nM” value turned out to be 85 and the “Potentiation Index at RMA concentration 500 nM” value is given as 200. Moreover, the IC50 in the data set with AR 1.0 cells [2] was 220 nM. Moreover, the IC50 in the data set with AR 1.0 cells [3] (setting [4]) was 9000 nM. The IC50 in the data set with AR 1.0 cells [3] (setting [5]) came out at 50 nM.
`COc1cc2c(cc1OC)CN(CCc1ccc(NC(=O)c3ccccc3NC(=O)c3ccc(C)c(C)c3)cc1)CC2` [compound 9538, 2-(3,4-Dimethyl-benzoylamino)-N-{4-[2-(6,7-dimethoxy-3,4-dihydro-1H-isoquinolin-2-yl)-ethyl]-phenyl}-benzamide]: the “Potentiation Index at RMA concentration 100 nM” value with AR 1.0 cells [1] worked out at 43. Moreover, the “Potentiation Index at RMA concentration 300 nM” value in the data set with AR 1.0 cells [1] was 128. The half-inhibitory concentration (IC50) in the data set on AR 1.0 cells [2] is 220 nM; in the data set on AR 1.0 cells [3] (setting [4]), 2300 nM; with AR 1.0 cells [3] (setting [5]), 14 nM.
Turning to `COc1cc2c(cc1OC)CN(CCNC(=O)c1cc(Br)ccc1NC(=O)c1ccc(C(C)C)cc1)CC2` [compound 9394, 2-(4-Isopropyl-benzoylamino)-N-[2-(6,7-dimethoxy-3,4-dihydro-1H-isoquinolin-2-yl)-ethyl]-5-bromo-benzamide], the “Potentiation Index at RMA concentration 500 nM” value with AR 1.0 cells [1] worked out at 12. The IC50 stood at 3400 nM with AR 1.0 cells [2] and 10000 nM in the data set with AR 1.0 cells [3] (setting [4]).
As to `COc1cc2c(cc1OC)CN(CCc1ccc(NC(=O)c3ccc(C(F)(F)F)cc3NC(=O)c3cnc4ccccc4n3)cc1)CC2` [compound 9561, Quinoxaline-2-carboxylic acid (2-{4-[2-(6,7-dimethoxy-3,4-dihydro-1H-isoquinolin-2-yl)-ethyl]-phenylcarbamoyl}-5-trifiuoromethyl-phenyl)-amide], in the data set on AR 1.0 cells [1], the “Potentiation Index at RMA concentration 10 nM” value was found to be 14, the “Potentiation Index at RMA concentration 30 nM” value was 60 and the “Potentiation Index at RMA concentration 100 nM” value is listed as 100. For the same compound, inhibition in the data set with AR 1.0 cells [2] was half-maximal at 55 nM (IC50). Further, the IC50 in the data set on AR 1.0 cells [3] (setting [4]) is 13000 nM. Further, in the data set with AR 1.0 cells [3] (setting [5]), the IC50 was 10 nM.
For `CCCc1ccc(C(=O)Nc2ccccc2C(=O)NCCN2CCc3cc(OC)c(OC)cc3C2)cc1` [compound 9297, 2-(4-Propyl-benzoylamino)-N-[2-(6,7-dimethoxy-3,4-dihydro-1H-isoquinolin-2-yl)-ethyl]-benzamide], the “Potentiation Index at RMA concentration 300 nM” value in the data set on AR 1.0 cells [1] amounted to 16. Moreover, the IC50 in the data set on AR 1.0 cells [2] came to 400 nM; in the data set on AR 1.0 cells [3] (setting [4]), 18000 nM; in the data set with AR 1.0 cells [3] (setting [5]) it was 330 nM.
With `COc1cc2c(cc1OC)CN(CCNC(=O)c1ccccc1NC(=O)c1nccc3ccccc13)CC2` [compound 9383, Isoquinoline-1-carboxylic acid {2-[2-(6,7-dimethoxy-3,4-dihydro-1H-isoquinolin-2-yl)-ethylcarbamoyl]-phenyl}-amide], the IC50 was 2000 nM in the data set on AR 1.0 cells [2] and 40000 nM with AR 1.0 cells [3] (setting [4]).
For `COc1cc2c(cc1OC)CN(CCNC(=O)c1ccccc1NC(=O)c1ccsc1)CC2` [compound 9365, Thiophene-3-carboxylic acid {2-[2-(6,7-dimethoxy-3,4-dihydro-1H-isoquinolin-2-yl)-ethylcarbamoyl]-phenyl}-amide], the figures for the IC50 in the data set with AR 1.0 cells [2], in the data set on AR 1.0 cells [3] (setting [4]) and in the data set with AR 1.0 cells [3] (setting [5]) were 2000 nM, 42000 nM and 800 nM, respectively.
On the same counts, the results for `COc1cc2c(cc1OC)CN(CCNC(=O)c1ccccc1NC(=O)c1cnc3ccccc3n1)CC2` [compound 9347, Quinoxaline-2-carboxylic acid {2-[2-(6,7-dimethoxy-3,4-dihydro-1H-isoquinolin-2-yl)-ethylcarbamoyl]-phenyl}-amide] are 3000 nM, 35000 nM and 600 nM.
For `COc1cc2c(cc1OC)CN(CCNC(=O)c1ccccc1NC(=O)c1ccc(N(C)C)cc1)CC2` [compound 9256], in that order: 1700 nM, 40000 nM and 300 nM.
Consider `COc1cc2c(cc1OC)CN(CCc1ccc(NC(=O)c3ccccc3NC(=O)c3ccc(OC(C)=O)cc3)cc1)CC2` [compound 9548, Acetic acid 4-(2-{4-[2-(6,7-dimethoxy-3,4-dihydro-1H-isoquinolin-2-yl)-ethyl]-phenylcarbamoyl}-phenylcarbamoyl)-phenyl ester], for which the IC50 amounted to 4900 nM with AR 1.0 cells [2], 1800 nM with AR 1.0 cells [3] (setting [4]) and 1000 nM with AR 1.0 cells [3] (setting [5]).
